Reference: patent publication US20220387604A1, “SELECTIVE DUAL HISTONE DEACETYLASE 6/8 (HDAC6/8) DEGRADERS AND METHODS OF USE THEREOF” (DANA-FARBER CANCER INSTITUTE, INC., priority 2019, published 2022)
“Also recorded” adds a separate entry of the source.

Columns and labels:
Assay type in all cases: biochemical
[1] = molecular target: T1, HDAC1 (Homo sapiens, UniProt Q13547); assay: HDAC enzymatic assay (Reaction Biology), HDAC1
T1 construct: purchased Reaction Biology
Protocol: (§1) Compound 1 was tested in an enzymatic assay from Reaction Biology® against 10 HDAC isoforms. The IC50 values were derived from a 10-dose response curve.
(§2) Base Reaction buffer: 50 mM Tris-HCl, pH8.0, 137 mM NaCl, 2.7 mM KCl, and 1 mM MgCl2, Add fresh: 1 mg/ml BSA, 1% DMSO
(§3) Fluorogenic HDAC General Substrate (HDAC1, HDAC2, HDAC3, HDAC6, HDAC10, and HDAC11): 50 μM, Arg-His-Lys-Lys(Ac)-AMC
(§4) 1. Delivered 2× enzyme in wells of reaction plate except in the control wells and added buffer to control wells. 2. Delivered compounds in 100% DMSO into the enzyme mixture by Acoustic technology (Echo550; nanoliter range). Spin down and pre-incubation. 3. Delivered 2× Substrate Mixture (Fluorogenic HDAC Substrate and co-factor if applicable) in all reaction wells to initiate the reaction. Spin and shake. 4. Incubated for 30 min for Class 2A, 1 h for HDAC1, 2, 3, and 6, and 2 h for the rest of HDAC isoforms and SIRTs at 30° C. with seal.
(§5) 5. Added Developer with Trichostatin A (or Nicotinamide for SIRTs) to stop the reaction and to generate fluorescent color. 6. The fluorescence that was generated was detected with excitation (Ex) at […] and emission (Em) at 460 nM by the EnVision Multilabel Plate Reader (PerkinElmer®, Santa Clara, Calif., USA).
(§6) IC50 values were derived from a 10-dose response curve.

[2] = molecular target: T2, HDAC3 (Homo sapiens, UniProt O15379); assay: HDAC enzymatic assay (Reaction Biology), HDAC3
T2 construct: purchased Reaction Biology
T2 sequence (O15379 whole entry): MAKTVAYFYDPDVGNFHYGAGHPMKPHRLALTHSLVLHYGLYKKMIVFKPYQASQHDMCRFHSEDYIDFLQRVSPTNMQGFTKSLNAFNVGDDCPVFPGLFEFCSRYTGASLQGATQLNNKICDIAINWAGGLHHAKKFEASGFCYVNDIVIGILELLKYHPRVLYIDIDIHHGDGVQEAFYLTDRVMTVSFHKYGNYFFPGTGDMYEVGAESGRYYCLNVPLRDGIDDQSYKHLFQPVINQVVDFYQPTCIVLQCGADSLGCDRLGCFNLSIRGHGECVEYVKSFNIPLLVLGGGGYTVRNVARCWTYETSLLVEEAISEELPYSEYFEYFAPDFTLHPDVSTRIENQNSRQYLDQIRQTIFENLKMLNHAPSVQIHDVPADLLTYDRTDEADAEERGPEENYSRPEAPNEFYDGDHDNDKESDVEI
T2 sequence (Q9Y618 395-489 partner limits assumed): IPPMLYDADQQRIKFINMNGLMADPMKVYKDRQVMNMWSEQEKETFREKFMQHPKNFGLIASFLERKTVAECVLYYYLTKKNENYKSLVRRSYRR
Protocol: as §1, §2, §3, §4, §5, §6

[3] = molecular target: T3, HDAC6 (Homo sapiens, UniProt Q9UBN7); assay: HDAC enzymatic assay (Reaction Biology), HDAC6; details: 10-dose response curve; read-out: Compound IC50 (M), HDAC6
T3 construct: purchased Reaction Biology
T3 sequence (Q9UBN7 1-1215): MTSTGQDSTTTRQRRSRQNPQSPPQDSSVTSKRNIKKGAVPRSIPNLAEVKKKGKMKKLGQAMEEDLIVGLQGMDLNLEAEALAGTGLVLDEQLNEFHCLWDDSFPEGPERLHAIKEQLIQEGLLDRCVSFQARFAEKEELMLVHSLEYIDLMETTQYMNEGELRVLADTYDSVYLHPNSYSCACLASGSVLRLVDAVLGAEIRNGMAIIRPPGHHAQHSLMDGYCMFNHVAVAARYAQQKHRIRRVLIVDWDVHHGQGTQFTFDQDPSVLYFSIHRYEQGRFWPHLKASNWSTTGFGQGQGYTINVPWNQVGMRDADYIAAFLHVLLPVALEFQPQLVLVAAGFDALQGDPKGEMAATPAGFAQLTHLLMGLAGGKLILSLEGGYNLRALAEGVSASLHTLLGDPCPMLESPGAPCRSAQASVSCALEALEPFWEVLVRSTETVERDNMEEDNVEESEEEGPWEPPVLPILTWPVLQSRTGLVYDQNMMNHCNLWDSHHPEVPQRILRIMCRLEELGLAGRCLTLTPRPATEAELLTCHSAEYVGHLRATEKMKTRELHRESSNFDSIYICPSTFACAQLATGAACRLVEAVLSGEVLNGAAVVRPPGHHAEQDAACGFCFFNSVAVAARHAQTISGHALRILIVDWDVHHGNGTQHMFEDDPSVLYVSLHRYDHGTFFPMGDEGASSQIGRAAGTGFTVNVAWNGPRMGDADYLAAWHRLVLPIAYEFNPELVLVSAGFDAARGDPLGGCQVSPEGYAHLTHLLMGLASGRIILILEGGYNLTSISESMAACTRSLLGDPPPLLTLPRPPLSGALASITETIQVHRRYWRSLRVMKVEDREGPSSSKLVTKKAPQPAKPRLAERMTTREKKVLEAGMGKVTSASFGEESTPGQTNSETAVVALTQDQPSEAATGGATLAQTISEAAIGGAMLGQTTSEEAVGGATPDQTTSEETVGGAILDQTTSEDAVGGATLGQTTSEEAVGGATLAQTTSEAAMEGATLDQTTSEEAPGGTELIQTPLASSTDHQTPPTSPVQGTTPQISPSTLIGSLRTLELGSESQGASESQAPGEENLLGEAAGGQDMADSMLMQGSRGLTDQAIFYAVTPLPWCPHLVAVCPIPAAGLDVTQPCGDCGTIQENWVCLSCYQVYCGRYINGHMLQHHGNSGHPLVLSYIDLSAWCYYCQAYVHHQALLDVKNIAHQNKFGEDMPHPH
Protocol: as §1, §2, §3, §4, §5, §6

[4] = molecular target: T4, HDAC8 (Homo sapiens, UniProt Q9BY41); assay: HDAC enzymatic assay (Reaction Biology), HDAC8
T4 construct: purchased Reaction Biology
T4 sequence (Q9BY41 1-377): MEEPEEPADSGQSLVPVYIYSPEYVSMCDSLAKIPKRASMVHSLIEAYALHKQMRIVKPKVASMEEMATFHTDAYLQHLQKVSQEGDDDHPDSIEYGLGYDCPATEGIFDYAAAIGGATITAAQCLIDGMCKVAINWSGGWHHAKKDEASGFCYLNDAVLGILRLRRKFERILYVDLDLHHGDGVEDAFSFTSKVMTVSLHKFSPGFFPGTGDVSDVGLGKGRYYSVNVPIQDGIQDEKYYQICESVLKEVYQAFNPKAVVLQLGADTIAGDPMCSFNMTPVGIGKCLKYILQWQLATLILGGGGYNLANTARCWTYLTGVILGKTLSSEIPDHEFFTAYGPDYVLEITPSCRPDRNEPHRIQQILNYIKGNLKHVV
Protocol: as §1, §2
(HDAC8 only substrate: 50 μM, Arg-His-Lys(Ac)-Lys(Ac))-AMC
as §4, §5, §6

[5] = molecular target: T5, HDAC5 (Homo sapiens, UniProt Q9UQL6); assay: HDAC enzymatic assay (Reaction Biology), HDAC5
T5 construct: purchased Reaction Biology
T5 sequence (Q9UQL6 whole entry): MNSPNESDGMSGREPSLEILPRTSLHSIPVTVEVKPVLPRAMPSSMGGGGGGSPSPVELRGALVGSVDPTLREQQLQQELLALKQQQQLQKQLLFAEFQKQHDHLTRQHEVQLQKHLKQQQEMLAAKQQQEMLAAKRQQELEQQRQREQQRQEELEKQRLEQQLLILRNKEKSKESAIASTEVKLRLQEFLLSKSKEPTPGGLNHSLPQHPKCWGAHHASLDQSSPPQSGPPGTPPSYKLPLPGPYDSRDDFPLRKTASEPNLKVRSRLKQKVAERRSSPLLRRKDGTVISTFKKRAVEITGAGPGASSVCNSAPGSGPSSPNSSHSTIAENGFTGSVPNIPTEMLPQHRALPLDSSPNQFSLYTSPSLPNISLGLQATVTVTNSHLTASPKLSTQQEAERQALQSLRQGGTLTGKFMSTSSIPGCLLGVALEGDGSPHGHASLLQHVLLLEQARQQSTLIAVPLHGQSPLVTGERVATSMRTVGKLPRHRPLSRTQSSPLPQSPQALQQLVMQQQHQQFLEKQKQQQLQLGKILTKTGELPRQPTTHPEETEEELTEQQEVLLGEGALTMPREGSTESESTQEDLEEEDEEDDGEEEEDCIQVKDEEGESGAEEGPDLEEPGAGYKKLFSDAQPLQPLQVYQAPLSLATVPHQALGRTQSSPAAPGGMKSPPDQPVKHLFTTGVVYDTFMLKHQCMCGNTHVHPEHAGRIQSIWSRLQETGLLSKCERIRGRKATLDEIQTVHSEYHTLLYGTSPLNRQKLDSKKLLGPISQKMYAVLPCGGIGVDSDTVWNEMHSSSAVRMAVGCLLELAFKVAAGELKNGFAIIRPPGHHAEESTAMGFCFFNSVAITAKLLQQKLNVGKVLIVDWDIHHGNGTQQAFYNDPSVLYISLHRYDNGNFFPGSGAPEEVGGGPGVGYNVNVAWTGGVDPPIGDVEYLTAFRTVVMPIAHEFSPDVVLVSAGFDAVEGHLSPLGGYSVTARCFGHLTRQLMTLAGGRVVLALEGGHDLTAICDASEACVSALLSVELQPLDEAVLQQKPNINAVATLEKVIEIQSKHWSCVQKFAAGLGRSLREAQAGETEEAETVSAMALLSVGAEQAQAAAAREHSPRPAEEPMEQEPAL
Protocol: as §1, §2
(§7) Class2A Substrate (HDAC4, HDAC5, HDAC7, and HDAC9): Boc-Lys(trifluoroacetyl)-AMC
as §4, §5, §6

[6] = molecular target: T6, HDAC4 (Homo sapiens, UniProt P56524); assay: HDAC enzymatic assay (Reaction Biology), HDAC4; details: summary of Table 1
T6 construct: purchased Reaction Biology
T6 sequence (P56524 whole entry): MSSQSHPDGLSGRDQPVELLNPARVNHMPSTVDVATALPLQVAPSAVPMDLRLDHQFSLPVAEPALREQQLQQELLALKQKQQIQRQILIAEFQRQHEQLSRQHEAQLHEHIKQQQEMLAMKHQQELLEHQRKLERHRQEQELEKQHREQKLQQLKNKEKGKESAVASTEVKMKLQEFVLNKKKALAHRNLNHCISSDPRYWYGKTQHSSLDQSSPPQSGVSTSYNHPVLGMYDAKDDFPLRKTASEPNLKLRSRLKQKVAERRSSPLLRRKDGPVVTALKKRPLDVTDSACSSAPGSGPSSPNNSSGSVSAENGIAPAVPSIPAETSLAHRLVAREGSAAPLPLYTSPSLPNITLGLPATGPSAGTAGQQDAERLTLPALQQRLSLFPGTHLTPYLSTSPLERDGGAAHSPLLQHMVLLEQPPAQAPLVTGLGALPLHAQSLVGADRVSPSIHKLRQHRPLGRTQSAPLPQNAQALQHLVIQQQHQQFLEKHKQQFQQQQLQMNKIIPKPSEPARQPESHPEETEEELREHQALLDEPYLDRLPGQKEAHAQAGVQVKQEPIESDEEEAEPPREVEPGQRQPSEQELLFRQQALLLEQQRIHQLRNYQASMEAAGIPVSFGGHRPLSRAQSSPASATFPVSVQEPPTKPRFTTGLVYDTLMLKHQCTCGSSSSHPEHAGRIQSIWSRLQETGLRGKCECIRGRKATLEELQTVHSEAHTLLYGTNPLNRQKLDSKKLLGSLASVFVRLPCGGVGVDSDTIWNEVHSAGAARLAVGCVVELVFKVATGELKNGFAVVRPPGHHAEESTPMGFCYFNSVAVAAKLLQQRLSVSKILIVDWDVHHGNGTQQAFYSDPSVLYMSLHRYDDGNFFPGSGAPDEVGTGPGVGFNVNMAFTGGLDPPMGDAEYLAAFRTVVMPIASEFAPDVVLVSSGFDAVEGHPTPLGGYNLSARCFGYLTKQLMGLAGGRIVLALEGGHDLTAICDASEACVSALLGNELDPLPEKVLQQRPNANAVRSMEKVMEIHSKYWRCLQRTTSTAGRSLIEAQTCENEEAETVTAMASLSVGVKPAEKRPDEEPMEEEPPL
Protocol: as §1, §2, §7, §4, §5, §6

[7] = molecular target: T7, HDAC9 (Homo sapiens, UniProt Q9UKV0); assay: HDAC enzymatic assay (Reaction Biology), HDAC9; details: summary of Table 1
T7 construct: purchased Reaction Biology
T7 sequence (Q9UKV0 whole entry): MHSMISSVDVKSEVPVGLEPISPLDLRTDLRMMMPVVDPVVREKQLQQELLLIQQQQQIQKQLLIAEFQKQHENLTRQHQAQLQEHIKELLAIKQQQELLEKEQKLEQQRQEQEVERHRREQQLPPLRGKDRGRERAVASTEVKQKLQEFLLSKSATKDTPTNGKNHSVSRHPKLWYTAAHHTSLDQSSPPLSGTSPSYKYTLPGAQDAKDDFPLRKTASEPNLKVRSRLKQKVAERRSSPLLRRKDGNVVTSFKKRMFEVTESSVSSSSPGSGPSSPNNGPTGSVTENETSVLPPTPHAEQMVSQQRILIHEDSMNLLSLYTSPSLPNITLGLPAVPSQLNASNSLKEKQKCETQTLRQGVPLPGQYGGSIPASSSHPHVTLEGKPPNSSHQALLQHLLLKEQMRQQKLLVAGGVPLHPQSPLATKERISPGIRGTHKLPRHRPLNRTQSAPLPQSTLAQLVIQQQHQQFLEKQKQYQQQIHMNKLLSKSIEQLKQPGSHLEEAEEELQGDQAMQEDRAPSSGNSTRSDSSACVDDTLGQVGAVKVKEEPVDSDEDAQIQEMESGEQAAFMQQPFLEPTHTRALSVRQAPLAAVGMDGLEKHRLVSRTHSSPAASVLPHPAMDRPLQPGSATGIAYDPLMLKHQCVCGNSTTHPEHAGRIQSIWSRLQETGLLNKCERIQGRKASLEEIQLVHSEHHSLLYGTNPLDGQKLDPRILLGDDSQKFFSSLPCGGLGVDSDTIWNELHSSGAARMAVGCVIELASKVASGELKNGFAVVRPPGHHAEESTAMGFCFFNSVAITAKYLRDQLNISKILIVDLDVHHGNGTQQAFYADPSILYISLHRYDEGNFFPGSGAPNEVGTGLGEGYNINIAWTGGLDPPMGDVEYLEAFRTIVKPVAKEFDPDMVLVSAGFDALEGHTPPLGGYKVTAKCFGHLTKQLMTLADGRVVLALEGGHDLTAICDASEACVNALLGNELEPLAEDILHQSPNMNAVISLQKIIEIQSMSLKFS
Protocol: as §1, §2, §7, §4, §5, §6

T1 sequence (Q13547 whole entry): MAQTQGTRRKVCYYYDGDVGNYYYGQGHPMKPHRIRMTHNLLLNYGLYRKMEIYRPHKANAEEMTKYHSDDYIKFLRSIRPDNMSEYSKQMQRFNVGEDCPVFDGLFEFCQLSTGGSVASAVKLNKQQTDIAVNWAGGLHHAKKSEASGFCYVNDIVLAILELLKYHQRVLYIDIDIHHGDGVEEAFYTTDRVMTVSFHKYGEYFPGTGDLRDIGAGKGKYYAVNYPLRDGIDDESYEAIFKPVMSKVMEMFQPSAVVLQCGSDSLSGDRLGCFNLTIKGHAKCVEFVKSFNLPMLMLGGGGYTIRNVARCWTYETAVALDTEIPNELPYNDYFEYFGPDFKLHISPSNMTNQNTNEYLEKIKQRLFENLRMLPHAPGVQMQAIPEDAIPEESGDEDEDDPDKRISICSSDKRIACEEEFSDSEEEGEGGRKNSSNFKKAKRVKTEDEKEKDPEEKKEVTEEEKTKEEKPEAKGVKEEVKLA

## O=C(/C=C/c1ccc(CN(CCOCCOCCNc2cccc3c2C(=O)N(C2CCC(=O)NC2=O)C3=O)CCc2c[nH]c3ccccc23)cc1)NO (centres unmarked) [Compound 1, (E)-3-(4-(((2-(1H-indol-3-yl)ethyl)(2-(2-(2-((2-(2,6-dioxopiperidin-3-yl)-1,3-dioxoisoindolin-4-yl)amino)ethoxy)ethoxy)ethyl)amino)methyl)phenyl)-N-hydroxyacrylamide]
[1]; 10-dose response curve, read-out: Compound IC50 (M), HDAC1
  IC50: 1.06e-06 M
[1]; summary of Table 1
  inhibition of enzymatic activity of HDAC1 (in words): Moderate inhibition
[2]; 10-dose response curve, read-out: Compound IC50 (M), HDAC3
  IC50: 1.29e-06 M
[2]; summary of Table 1
  inhibition of enzymatic activity of HDAC3 (in words): Moderate inhibition
[3]
  IC50: 1.6e-07 M
[4]; 10-dose response curve, read-out: Compound IC50 (M), HDAC8
  IC50: 4.51e-06 M
[4]; summary of Table 1
  inhibition of enzymatic activity of HDAC8 (in words): potently inhibited; also recorded: Moderate inhibition
[5]; 10-dose response curve, read-out: Compound IC50 (M), HDAC5
  IC50: > 2e-05 M
[5]; summary of Table 1
  inhibition of enzymatic activity of HDAC5 (in words): did not inhibit
[6]
  inhibition of enzymatic activity of HDAC4 (in words): did not inhibit
[7]
  inhibition of enzymatic activity of HDAC9 (in words): did not inhibit
